Source: US7700584B2 (Hangzhou Minsheng Pharmaceuticals Co., Ltd., priority 2004, dated 2010)

Legend:
[1] = test system: U-937 human histocytic lymphoma; test: In vitro inhibition rate to tumor cells (MTT), U-937; assay type: cell-based; conditions: 50 μg/ml
Procedure: (§1) (1) Single cell suspension was seeded into 96-well plates (×3) (the cells was diluted in the PRMI-1640 minimum medium to 3×10^4 cells/ml, […] diluted cells/well). […] The experiments were performed in quadruplicate.
(§2) (2) The medium was removed. Solutions of the anti-tumor agents (15 compounds) were prepared in a freshly prepared medium at the concentrations indicated in the following Table. […] of the solution was added into each well. Incubation was continued for 48 hours.
(§3) (3) […] of 2 mg/ml MTT was added into each well, and incubated for 4 hours.
(§4) (4) The medium was removed from the well. The microplates were swiftly turned down to throw-off the medium. […] DMSO was added into each well, and vortexed at room temperature for 10 minutes.
(§5) (5) OD value (λ=570 nm) was measured with an Enzyme-Linked Detector.
(§6) (6) The inhibition rates (IR) of cell growth were respectively calculated based on the following equation: IR(%)=[1−(average OD of the experimental group/average OD of the control group)]×100%

[2] = test system: SMMC-7721 human hepatic carcinoma; test: In vitro inhibition rate to tumor cells (MTT), SMMC-7721; assay type: cell-based; conditions: 50 μg/ml
Procedure: as §1, §2, §3, §4, §5, §6

[3] = test system: Bel-7402 human hepatic carcinoma; test: In vitro inhibition rate to tumor cells (MTT), Bel-7402; assay type: cell-based; conditions: 50 μg/ml
Procedure: as §1, §2, §3, §4, §5, §6

[4] = test system: MCF-7 human mammary adenocarcinoma; test: In vitro inhibition rate to tumor cells (MTT), MCF-7; assay type: cell-based; conditions: 50 μg/ml
Procedure: as §1, §2, §3, §4, §5, §6

[5] = test system: LLC mouse Lewis lung carcinoma; test: In vitro inhibition rate to tumor cells (MTT), LLC; assay type: cell-based; conditions: 50 μg/ml
Procedure: as §1, §2, §3, §4, §5, §6

[6] = test system: Hela human cervical carcinoma; test: In vitro inhibition rate to tumor cells (MTT), Hela; assay type: cell-based; conditions: 50 μg/ml
Procedure: as §1, §2, §3, §4, §5, §6

[7] = test system: HL-60 human promyelocytic leukemia; test: In vitro inhibition rate to tumor cells (MTT), HL-60; assay type: cell-based; conditions: 50 μg/ml
Procedure: as §1, §2, §3, §4, §5, §6

[8] = test system: A-549 human lung adenocarcinoma; test: In vitro inhibition rate to tumor cells (MTT), A-549; assay type: cell-based; conditions: 50 μg/ml
Procedure: as §1, §2, §3, §4, §5, §6

[9] = molecular target: T1, HIV-1 proteinase (HIV-1 PR) (Human immunodeficiency virus type 1 group M subtype B, UniProt P04585); test: Screening for in vitro activity against HIV-1 proteinase; assay type: biochemical; conditions: read-out: Inhibition rate, 10 nM
T1 construct: HIV-1 proteinase digests the fluorescent-labeled substrate; purchased
Procedure: Principle of the test: HIV-1 proteinase digests the fluorescent-labeled substrate in an optimal reaction condition and system. The activity of the enzyme can be reflected by the fluorescent intensity in the product of the enzyme reaction. Adding a sample into the reaction system can be used for screening the inhibitor of the enzyme.
1. HIV-1 PR: commercially available, stored at −85° C.
2. Treatment of the samples: Before use, sample was dissolved in DMSO at a suitable concentration, then serially diluted (5×) with double distilled water, five serial dilutions per sample.
3. Positive control: indinavir, purchased from […].
4. Methods: The diluted sample was added into the reaction buffer containing the fluorescent-labeled substrate. Then the genetic engineered target enzyme was added, and incubated in the optimal reaction condition. The fluorescent value was measured with a FLUO star Galaxy luminoscope.

| Compound | inhibition rate, Results (%) U-937 ([1]; Table 1) [%] | inhibition rate, Results (%) U-937 ([1]; Table 2 (repeated screening)) [%] | inhibition rate, Results (%) SMMC-7721 ([2]; Table 1) [%] | inhibition rate, Results (%) SMMC-7721 ([2]; Table 2 (repeated screening)) [%] | inhibition rate, Results (%) Bel-7402 ([3]; Table 1) [%] | inhibition rate, Results (%) Bel-7402 ([3]; Table 2 (repeated screening)) [%] | inhibition rate, Results (%) MCF-7 ([4]; Table 1) [%] | inhibition rate, Results (%) MCF-7 ([4]; Table 2 (repeated screening)) [%] | inhibition rate, Results (%) LLC ([5]; Table 1) [%] | inhibition rate, Results (%) LLC ([5]; Table 2 (repeated screening)) [%] | inhibition rate, Results (%) Hela ([6]; Table 1) [%] | inhibition rate, Results (%) Hela ([6]; Table 2 (repeated screening)) [%] | inhibition rate, Results (%) HL-60 ([7]; Table 1) [%] | inhibition rate, Results (%) HL-60 ([7]; Table 2 (repeated screening)) [%] | inhibition rate, Results (%) A-549 ([8]; Table 1) [%] | inhibition rate, Results (%) A-549 ([8]; Table 2 (repeated screening)) [%] | inhibition at 0.01 µM [9] [%] |
| --- | --- | --- | --- | --- | --- | --- | --- | --- | --- | --- | --- | --- | --- | --- | --- | --- | --- |
| CCCCNC=C1CC2(OC)OC3(CC2C(C)C)C(C)CCC13 (centres unmarked) [Compound 27, Curcumol methyl ether n-butyl amine] | 52.98 | 50.98 | 25.94 | 20.36 | 4.65 | 2.31 | 23.78 | 14.36 | −10.89 | −10.00 | 62.31 | 60.21 | 3.19 | 5.969 | 15.01 | 5.23 |  |
| CC(C)(C)NC(=O)[C@@H]1CN(Cc2cccnc2)CCN1C[C@@H](O)C[C@@H](Cc1ccccc1)C(=O)N[C@H]1c2ccccc2C[C@H]1O [indinavir] |  |  |  |  |  |  |  |  |  |  |  |  |  |  |  |  | 92.1 |
| CC(C)C1CC23OC1(O)CC(CN1CCNCC1)(N1CCNCC1)C2CCC3C (centres unmarked) [Compound 41, Curcumol bispiperazine] | 8.65 | −1.02 | 4.42 | 3.12 | 16.78 | 1.23 | 36.45 | 31.28 | 30.96 | 23.65 | 50.32 | 51.23 | 6.78 | 1.86 | −2.50 | −7.89 |  |
| CC(C)C1CC23OC1(O)CC(C)(O[N+](=O)[O-])C2CCC3C (centres unmarked) [Compound 36, Curcumol mononitrate without double bond] | 6.98 | 5.32 | 15.39 | 14.08 | 0.22 | 0.02 | −1.23 | −2.31 | 11.56 | 11.56 | 62.13 | 65.23 | 1.03 | 2.01 | 9.21 | 1.20 |  |
| CC(C)C1CC23OC1(O)CC(C)(Br)C2CCC3C (centres unmarked) [Compound 34, Curcumol monobromide without double bond] | 35.23 | 23.56 | −5.25 | 0.95 | 1.11 | 0.59 | 1.23 | 4.56 | −18.52 | −11.22 | 50.64 | 51.89 | 2.96 | 3.14 | 2.31 | 9.23 |  |
